ChEMBL document CHEMBL1177732, “Triterpene saponins from Clematis chinensis and their potential anti-inflammatory activity” (J Nat Prod, 2010)

Columns and labels:
[1] = molecular target: Prostaglandin G/H synthase 1 (Homo sapiens, UniProt P23219); assay: Inhibition of COX1 by microplate reader
[2] = molecular target: T1, Prostaglandin G/H synthase 2 (Homo sapiens, UniProt P35354); assay: Inhibition of COX2 by microplate reader
T1 sequence (P35354 whole entry): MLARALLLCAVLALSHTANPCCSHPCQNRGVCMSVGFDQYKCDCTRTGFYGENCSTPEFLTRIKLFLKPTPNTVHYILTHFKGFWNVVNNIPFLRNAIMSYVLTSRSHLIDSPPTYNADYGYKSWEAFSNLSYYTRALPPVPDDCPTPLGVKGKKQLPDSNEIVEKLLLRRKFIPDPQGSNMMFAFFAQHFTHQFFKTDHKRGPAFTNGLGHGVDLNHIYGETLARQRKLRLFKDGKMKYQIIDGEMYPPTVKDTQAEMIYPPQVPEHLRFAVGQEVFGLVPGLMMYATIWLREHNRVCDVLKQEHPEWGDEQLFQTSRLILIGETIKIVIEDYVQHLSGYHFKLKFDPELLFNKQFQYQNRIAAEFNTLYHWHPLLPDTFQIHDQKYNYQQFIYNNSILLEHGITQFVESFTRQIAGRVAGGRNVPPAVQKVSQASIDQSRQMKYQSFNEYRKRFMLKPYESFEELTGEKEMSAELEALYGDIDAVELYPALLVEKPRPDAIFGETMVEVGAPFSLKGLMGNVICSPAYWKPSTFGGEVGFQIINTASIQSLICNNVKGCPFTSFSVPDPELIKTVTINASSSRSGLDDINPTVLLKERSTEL

Chain of Prostaglandin G/H synthase 1 (P23219 whole entry): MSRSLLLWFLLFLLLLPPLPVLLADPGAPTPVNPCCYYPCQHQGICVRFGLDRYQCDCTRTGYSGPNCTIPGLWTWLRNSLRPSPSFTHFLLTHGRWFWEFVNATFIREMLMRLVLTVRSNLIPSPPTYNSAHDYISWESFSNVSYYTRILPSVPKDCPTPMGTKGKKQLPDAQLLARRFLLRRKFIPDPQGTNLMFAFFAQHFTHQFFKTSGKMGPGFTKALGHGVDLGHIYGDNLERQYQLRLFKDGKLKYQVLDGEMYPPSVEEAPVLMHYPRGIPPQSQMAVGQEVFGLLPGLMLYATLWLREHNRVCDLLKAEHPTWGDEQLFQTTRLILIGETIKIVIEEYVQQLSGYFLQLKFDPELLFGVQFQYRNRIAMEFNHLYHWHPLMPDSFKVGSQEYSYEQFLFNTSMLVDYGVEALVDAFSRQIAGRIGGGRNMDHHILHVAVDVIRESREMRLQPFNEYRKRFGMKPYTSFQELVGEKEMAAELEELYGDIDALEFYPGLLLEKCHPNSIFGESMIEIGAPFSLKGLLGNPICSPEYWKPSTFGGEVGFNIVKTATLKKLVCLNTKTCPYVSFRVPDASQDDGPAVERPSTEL

Row | Structure (SMILES) | IC50 [1] | IC50 [2]
1 | C[C@@H]1O[C@@H](O[C@H]2[C@H](O)[C@@H](O)[C@H](OC[C@H]3O[C@@H](OC(=O)[C@]45CCC(C)(C)C[C@H]4C4=CC[C@@H]6[C@@]7(C)CC[C@H](O[C@@H]8OC[C@H](O)[C@H](O)[C@H]8O)[C@@](C)(CO)[C@@H]7CC[C@@]6(C)[C@]4(C)CC5)[C@H](O)[C@@H](O)[C@@H]3O)O[C@@H]2CO)[C@H](O)[C@H](O)[C@H]1O [CAULOSIDE D] | > 50 µM | > 50 µM
2 | C[C@@H]1O[C@@H](O[C@H]2[C@H](O)[C@@H](O)[C@H](OC[C@H]3O[C@@H](OC(=O)[C@]45CCC(C)(C)C[C@H]4C4=CC[C@@H]6[C@@]7(C)CC[C@H](O)C(C)(C)[C@@H]7CC[C@@]6(C)[C@]4(C)CC5)[C@H](O)[C@@H](O)[C@@H]3O)O[C@@H]2CO)[C@H](O)[C@H](O)[C@H]1O [CIRENSENOSIDE O] | > 50 µM | > 50 µM
3 | C[C@@H]1O[C@@H](O[C@H]2[C@H](O)[C@@H](O)[C@H](OC[C@H]3O[C@@H](OC(=O)[C@]45CCC(C)(C)C[C@H]4C4=CC[C@@H]6[C@@]7(C)CC[C@H](O[C@@H]8OC[C@H](O)[C@H](O)[C@H]8O)C(C)(C)[C@@H]7CC[C@@]6(C)[C@]4(C)CC5)[C@H](O)[C@@H](O)[C@@H]3O)O[C@@H]2CO)[C@H](O)[C@H](O)[C@H]1O [CIWUJIANOSIDE C3] | > 50 µM | > 50 µM
4 | COc1ccc(/C=C/C(=O)O[C@H]2[C@H](O[C@H]3[C@H](O)[C@@H](O)[C@H](O[C@@H]4CO[C@@H](O[C@@H]5[C@@H](O)[C@H](C)O[C@@H](O[C@H]6[C@H](O[C@H]7CC[C@]8(C)[C@H]9CC=C%10[C@@H]%11CC(C)(C)CC[C@]%11(C(=O)O[C@@H]%11O[C@H](CO[C@@H]%12O[C@H](CO)[C@@H](O[C@@H]%13O[C@@H](C)[C@H](O)[C@@H](O)[C@H]%13O)[C@H](O)[C@H]%12O)[C@@H](O)[C@H](O)[C@H]%11O)CC[C@@]%10(C)[C@]9(C)CC[C@H]8C7(C)C)OC[C@H](O)[C@@H]6O)[C@@H]5O)[C@H](O)[C@@H]4O)O[C@@H]3CO)O[C@H](CO)[C@@H](O)[C@@H]2O[C@@H]2O[C@H](CO[C@@H]3O[C@@H](C)[C@H](O)[C@@H](O)[C@H]3O[C@@H]3O[C@H](CO)[C@@H](O)[C@H](O)[C@H]3O)[C@@H](O)[C@H](O)[C@H]2O)cc1O [CLEMATERNOSIDE K] | 5.9 µM | 6.7 µM
5 | C[C@@H]1O[C@@H](O[C@H]2[C@H](O)[C@@H](O)[C@H](OC[C@H]3O[C@@H](OC(=O)[C@]45CCC(C)(C)C[C@H]4C4=CC[C@@H]6[C@@]7(C)CC[C@H](O[C@@H]8OC[C@H](O)[C@H](O)[C@H]8O[C@@H]8O[C@@H](C)[C@H](O)[C@@H](O[C@@H]9OC[C@@H](O)[C@@H](O)[C@H]9O)[C@H]8O)C(C)(C)[C@@H]7CC[C@@]6(C)[C@]4(C)CC5)[C@H](O)[C@@H](O)[C@@H]3O)O[C@@H]2CO)[C@H](O)[C@H](O)[C@H]1O [HUZHANGOSIDE B] | > 50 µM | > 50 µM
6 | C[C@@H]1O[C@@H](O[C@H]2[C@H](O[C@H]3CC[C@]4(C)[C@H]5CC=C6[C@@H]7CC(C)(C)CC[C@]7(C(=O)O[C@@H]7O[C@H](CO[C@@H]8O[C@H](CO)[C@@H](O[C@@H]9O[C@@H](C)[C@H](O)[C@@H](O)[C@H]9O)[C@H](O)[C@H]8O)[C@@H](O)[C@H](O)[C@H]7O)CC[C@@]6(C)[C@]5(C)CC[C@H]4C3(C)C)OC[C@H](O)[C@@H]2O)[C@H](O)[C@H](O)[C@H]1O [HEDERASAPONIN B] | > 50 µM | > 50 µM
7 | C[C@@H]1O[C@@H](O[C@H]2[C@H](O)[C@@H](O)[C@H](OC[C@H]3O[C@@H](OC(=O)[C@]45CCC(C)(C)C[C@H]4C4=CC[C@@H]6[C@@]7(C)CC[C@H](O[C@@H]8OC[C@H](O)[C@H](O)[C@H]8O[C@@H]8O[C@@H](C)[C@H](O)[C@@H](O[C@@H]9OC[C@@H](O[C@@H]%10O[C@H](CO)[C@@H](O)[C@H](O)[C@H]%10O)[C@@H](O)[C@H]9O)[C@H]8O)[C@@](C)(CO)[C@@H]7CC[C@@]6(C)[C@]4(C)CC5)[C@H](O)[C@@H](O)[C@@H]3O)O[C@@H]2CO)[C@H](O)[C@H](O)[C@H]1O [CLEMATICHINENOSIDE B] | > 50 µM | > 50 µM

The next lines start with the values.

Row | IC50 [1] | IC50 [2] | Structure (SMILES)
8 | 7.6 µM | 8.8 µM | COc1ccc(/C=C/C(=O)O[C@H]2[C@H](O[C@H]3[C@H](O)[C@@H](O)[C@H](O[C@@H]4CO[C@@H](O[C@@H]5[C@@H](O)[C@H](C)O[C@@H](O[C@H]6[C@H](O[C@H]7CC[C@]8(C)[C@H]9CC=C%10[C@@H]%11CC(C)(C)CC[C@]%11(C(=O)O[C@@H]%11O[C@H](CO[C@@H]%12O[C@H](CO)[C@@H](O[C@@H]%13O[C@@H](C)[C@H](O)[C@@H](O)[C@H]%13O)[C@H](O)[C@H]%12O)[C@@H](O)[C@H](O)[C@H]%11O)CC[C@@]%10(C)[C@]9(C)CC[C@H]8C7(C)C)OC[C@H](O)[C@@H]6O)[C@@H]5O)[C@H](O)[C@@H]4O)O[C@@H]3CO)O[C@H](CO)[C@@H](O)[C@@H]2O)cc1O [CLEMATERNOSIDE C]
9 | 8.9 µM | 7.9 µM | COc1ccc(/C=C/C(=O)OC[C@H]2O[C@@H](O[C@H]3[C@H](O)[C@@H](O)[C@H](O[C@@H]4CO[C@@H](O[C@@H]5[C@@H](O)[C@H](C)O[C@@H](O[C@H]6[C@H](O[C@H]7CC[C@@]8(C)[C@@H](CC[C@]9(C)[C@@H]8CC=C8[C@@H]%10CC(C)(C)CC[C@]%10(C(=O)O[C@@H]%10O[C@H](CO[C@@H]%11O[C@H](CO)[C@@H](O[C@@H]%12O[C@@H](C)[C@H](O)[C@@H](O)[C@H]%12O)[C@H](O)[C@H]%11O)[C@@H](O)[C@H](O)[C@H]%10O)CC[C@]89C)[C@]7(C)CO)OC[C@@H](O)[C@@H]6O)[C@@H]5O)[C@H](O)[C@@H]4O)O[C@@H]3CO)[C@H](O)[C@@H](O)[C@@H]2O)cc1O [CLEMATOCHINENOSIDE E]
10 | > 50 µM | > 50 µM | C[C@@H]1O[C@@H](O[C@H]2[C@H](O)[C@@H](O)[C@H](OC[C@H]3O[C@@H](OC(=O)[C@]45CCC(C)(C)C[C@H]4C4=CC[C@@H]6[C@@]7(C)CC[C@H](O[C@@H]8OC[C@H](O)[C@H](O)[C@H]8O[C@@H]8O[C@@H](C)[C@H](O)[C@@H](O[C@@H]9OC[C@@H](O[C@@H]%10O[C@H](CO)[C@@H](O[C@@H]%11O[C@H](CO)[C@@H](O)[C@H](O)[C@H]%11O)[C@H](O)[C@H]%10O)[C@@H](O)[C@H]9O)[C@H]8O)C(C)(C)[C@@H]7CC[C@@]6(C)[C@]4(C)CC5)[C@H](O)[C@@H](O)[C@@H]3O)O[C@@H]2CO)[C@H](O)[C@H](O)[C@H]1O [CLEMATOMANDSHURICA SAPONIN C]
11 | 8 µM | 7.6 µM | COc1ccc(/C=C/C(=O)O[C@@H]2[C@@H](O)[C@H](O[C@H]3[C@H](O)[C@@H](O)[C@H](O[C@@H]4CO[C@@H](O[C@@H]5[C@@H](O)[C@H](C)O[C@@H](O[C@H]6[C@H](O[C@H]7CC[C@]8(C)[C@H]9CC=C%10[C@@H]%11CC(C)(C)CC[C@]%11(C(=O)O[C@@H]%11O[C@H](CO[C@@H]%12O[C@H](CO)[C@@H](O[C@@H]%13O[C@@H](C)[C@H](O)[C@@H](O)[C@H]%13O)[C@H](O)[C@H]%12O)[C@@H](O)[C@H](O)[C@H]%11O)CC[C@@]%10(C)[C@]9(C)CC[C@H]8C7(C)C)OC[C@H](O)[C@@H]6O)[C@@H]5O)[C@H](O)[C@@H]4O)O[C@@H]3CO)O[C@H](CO)[C@H]2O)cc1O [CLEMATERNOSIDE B]
